Data: US5043332A, “Novel 11β-substituted -19-nor-steriods” (priority 1981, dated 1991)
Read-outs that look alike come from different tables or passages of the source.

What was measured:
[1] = molecular target: T1, Androgen receptor of prostate of rats (Rattus norvegicus, UniProt P15207); test: Androgen receptor binding (displacement of tritiated product P); conditions: for affinity for androgen receptors (in words): conclusion
T1 construct: The prostates were removed, weighed and homogenized at 0° C; from tissue; host or cells: rat prostate, 105,000 g supernatant (castrated male Sprague-Dawley rats)
T1 sequence (P15207 1-902): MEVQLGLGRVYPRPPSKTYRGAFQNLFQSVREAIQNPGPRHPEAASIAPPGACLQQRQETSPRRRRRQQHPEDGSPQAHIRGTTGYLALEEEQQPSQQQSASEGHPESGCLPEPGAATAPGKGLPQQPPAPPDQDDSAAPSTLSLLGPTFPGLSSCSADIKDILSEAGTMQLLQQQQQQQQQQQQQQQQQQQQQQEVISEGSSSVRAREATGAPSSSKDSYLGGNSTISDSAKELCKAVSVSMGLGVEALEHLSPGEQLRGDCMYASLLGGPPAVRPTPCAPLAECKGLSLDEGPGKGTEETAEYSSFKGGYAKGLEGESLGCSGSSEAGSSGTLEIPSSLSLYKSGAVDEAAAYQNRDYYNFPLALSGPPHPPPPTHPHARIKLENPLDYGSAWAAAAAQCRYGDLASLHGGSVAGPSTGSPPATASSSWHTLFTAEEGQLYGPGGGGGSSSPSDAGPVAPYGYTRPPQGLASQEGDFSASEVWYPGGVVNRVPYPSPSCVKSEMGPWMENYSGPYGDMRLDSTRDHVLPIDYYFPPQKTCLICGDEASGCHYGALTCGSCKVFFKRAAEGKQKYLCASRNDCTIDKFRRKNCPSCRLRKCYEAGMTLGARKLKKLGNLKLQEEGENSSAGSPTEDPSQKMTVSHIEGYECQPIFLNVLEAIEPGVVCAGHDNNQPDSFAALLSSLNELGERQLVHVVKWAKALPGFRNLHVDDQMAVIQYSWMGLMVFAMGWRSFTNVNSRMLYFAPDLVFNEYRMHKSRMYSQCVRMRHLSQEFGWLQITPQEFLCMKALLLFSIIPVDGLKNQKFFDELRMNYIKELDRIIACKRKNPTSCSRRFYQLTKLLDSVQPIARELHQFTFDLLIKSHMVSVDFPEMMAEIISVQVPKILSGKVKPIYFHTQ
Procedure, shortened: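 Male Sprague-Dawley EPOS rats of 160 to 200 g were castrated and killed 24 hours later. Prostates were homogenized at 0° C. in Tris 10 mM, 0.25M saccharose, HCl buffer at pH 7.4 (1 g tissue per 5 ml) and ultracentrifuged at 105,000 g. Cytosol was incubated with tritiated product P plus increasing cold competitor (0-1,000×10^-9 M). Bound tritium was measured by carbon-dextran adsorption. ARL was derived from the 50% inhibitory concentrations of reference and test compound.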

[2] = molecular target: T2, Estrogen receptor of uterus of mice (Mus musculus, UniProt P19785); test: Estrogen receptor binding (displacement of tritiated estradiol)
T2 construct: the uterus were removed and homogenized at 0° C; from tissue; host or cells: mouse uterus, 105,000 g supernatant (immature females 18 to 21 days old)
T2 sequence (P19785 1-599): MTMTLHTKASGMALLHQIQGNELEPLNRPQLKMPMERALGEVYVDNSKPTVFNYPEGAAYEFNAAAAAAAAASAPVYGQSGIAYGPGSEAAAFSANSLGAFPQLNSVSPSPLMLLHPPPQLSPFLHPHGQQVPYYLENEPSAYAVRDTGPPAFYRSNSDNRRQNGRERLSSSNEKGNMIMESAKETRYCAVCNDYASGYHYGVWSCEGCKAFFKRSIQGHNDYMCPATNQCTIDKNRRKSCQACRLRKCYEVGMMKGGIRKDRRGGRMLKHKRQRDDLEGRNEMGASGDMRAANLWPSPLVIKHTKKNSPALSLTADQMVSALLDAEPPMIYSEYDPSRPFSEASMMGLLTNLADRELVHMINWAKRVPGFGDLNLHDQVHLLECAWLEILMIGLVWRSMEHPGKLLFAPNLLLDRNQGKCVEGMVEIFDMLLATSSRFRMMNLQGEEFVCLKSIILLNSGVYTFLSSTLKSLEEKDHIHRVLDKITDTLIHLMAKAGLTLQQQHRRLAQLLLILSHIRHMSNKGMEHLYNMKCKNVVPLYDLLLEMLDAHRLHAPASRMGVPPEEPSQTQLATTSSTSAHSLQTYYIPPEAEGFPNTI
Method: E. Estrogen receptor of uterus of mice
Immature female mice 18 to 21 days old were killed and the uterus were removed and homogenized at 0° C. with a polytetrafluoroethylene-glass Potter in a buffered TS solution consisting of 10 mM, Tris, 0125M Saccharose, HCl for a pH of 7.4 at a rate of 1 g of tissue per 25 ml of TS. The homogenate was then ultracentrigued at 105,000 g for 90 minutes at 0° C. and aliquoits of the resulting […] were incubated at 0° C. for a time (t) with a constant concentration (T) of tritiated estradiol in the presence of increasing concentrations (0 to 1000×10^-9 M) of either cold estradiol or cold test compound. The concentration of tied tritiated estradiol (B) was measured for each incubate by the technique of adsorption on carbon-dextran.
The calculation of the relative affinity of […] (ARL) was identical for all of the above receptor tests. One traced the following two curves: the percentage of tied tritiated hormone B/T as a function of the logarithm of the cold hormone concentration and B/T as a function of the logarithm of the concentration of the cold test product. One determined the line of the equation. [formula]
The intersection of the I50 line and the curves permits one to determine the concentrations of the cold hormone of the reference (CH) and the cold test compound (CX) which inhibit by 50% the tieing of tritiated hormone with the receptor. The relative affinity of tieing (ARL) of the test product was determined by the equation: [formula]

[3] = tested on: thymocytes of surrenalectomized rats; test: Antiglucocorticoidal activity, incorporation of tritiated uridine in thymocytes; format: cell-based; conditions: for inhibition at 1 µM / inhibition at 0.1 µM / inhibition at 0.01 µM: Rattus norvegicus, Thymocyte; for inhibition at 1 µM / % of inhibition of effect of Dexamethasone (symbol): 5 × 10^-8 M dexamethasone + test product 10^-6 M; for inhibition at 0.1 µM: 5 × 10^-8 M dexamethasone + test product 10^-7 M; for inhibition at 0.01 µM: 5 × 10^-8 M dexamethasone + test product 10^-8 M; for opposition to the effect of dexamethasone on tritiated uridine incorporation (in words): with 5×10^-8 M dexamethasone
Method: III. Antiglucocorticoidal Activity
The test used was that of Dausse et al [Molecular Pharmacology, Vol. 13 (1977), p. 948-955] entitled "The relationship between glucocorticoid structure and effects upon thymocytes" for […] thymocytes. The thymocytes of surrenalectomized rats were incubated at 37° C. for 3 hours in a nutritive medium containing 5×10^-8 M of dexamethasone in the presence or absence of the test compound at different concentrations. Tritiated uridine was added and incubation was continued for one hour. The incubates were cooled and treated with a 5% trifluoroacetic acid solution and the mixture was filtered with Whatman GF/A paper. The filter was washed 3 times with a 5% trifluoroacetic acid solution and retained radioactivity on the filter was determined.

[4] = read-out: % inhibition of effect of Dexamethasone
[5] = second table, incubation 24 H at 0° C.
[6] = second table, incubation 2 H at 0° C.
[7] = second table, read-out: % of inhibition of effect of Dexamethasone

SMILES | relative affinity of tieing (ARL), Androgen ([1]; incubation 1/2H at 0° C.) | relative affinity of tieing (ARL), Androgen ([1]; incubation 24 H at 0° C.) | relative affinity of tieing (ARL), Estrogen ([2]; incubation 2 H at 0° C.) | relative affinity of tieing (ARL), Estrogen ([2]; incubation 5 H (25° C.)) | inhibition at 1 µM [3, 4] | inhibition at 0.1 µM [3, 4] | inhibition at 0.01 µM [3, 4] | relative affinity of tieing (ARL), Androgen [1, 5] | relative affinity of tieing (ARL), Estrogen [2, 6] | inhibition at 1 µM [3, 7] | inhibition at 0.1 µM [3, 7] | inhibition at 0.01 µM [3, 7] | opposition to the effect of dexamethasone on tritiated uridine incorporation (in words) [3] | % of inhibition of effect of Dexamethasone (symbol) ([3]; second table) | affinity for androgen receptors (in words) [1]
CC#C[C@]1(O)CC[C@H]2[C@@H]3CCC4=CC(=O)C(C#N)(C#N)CC4=C3[C@@H](c3ccc(N(C)C)cc3)C[C@@]21C [Example 9, 2,2-dicyano-11β-(4-dimethylaminophenyl)-17α-(prop-1-ynyl)-Δ^4,9-estradiene-17β-ol-3-one] | < 0,1 | < 0,1 | < 0,1 | < 0,1 | 2% | 1% | 3% | – | – | – | – | – | – | – | –
C#C[C@@]1(O)CC[C@H]2[C@@H]3CCC4=CC(=O)CCC4=C3[C@@H](c3ccc(N(C)C)cc3)C[C@@]21C [Example 21, 11β-[4-(N,N-dimethylamino)-phenyl]-17β-ethynyl-Δ^4,9-estradiene-17α-ol-3-one] | – | – | – | – | – | – | – | 7,3 | 0 | 83% | 15% | 5% | opposed this effect | – | –
C=C(C)C#C[C@]1(O)CC[C@H]2[C@@H]3CCC4=CC(=O)CCC4=C3[C@@H](c3ccc(N(C)C)cc3)C[C@@]21C [Example 23, 11β-[4-(N,N-dimethylamino)-phenyl]-23-methyl-19,21-dinor-17α-Δ^4,9,23-cholatriene-20-yn-17β-ol-3-one] | – | – | – | – | – | – | – | 14,7 | 0 | – | 53% | 22% | opposed this effect | * (A dose of 10^-6 M inhibited totally the effect of dexamethasone) | –
CN(C)c1ccc([C@H]2C[C@@]3(C)[C@@H](CC[C@@]3(O)C#CCl)[C@@H]3CCC4=CC(=O)CCC4=C32)cc1 [Example 25, 11β-[4-(N,N-dimethylamino)-phenyl]-21-chloro-19-nor-17α-Δ^4,9-pregnadiene-20-yne-17β-ol-3-one] | – | – | – | – | – | – | – | 32 | 0 | – | 85% | 57% | opposed this effect | * (A dose of 10^-6 M inhibited totally the effect of dexamethasone) | slightly moderate affinity
C[C@]12C[C@H](c3ccc([N+](C)(C)[O-])cc3)C3=C4CCC(=O)C=C4CC[C@H]3[C@@H]1CC[C@@]2(O)C#CCl [Example 26, N-oxide of 11β-[4-(N,N-dimethylamino)-phenyl]-21-chloro-19-nor-17α-Δ^4,9-pregnadiene-20-yne-17β-ol-3-one] | – | – | – | – | – | – | – | 9,8 | 0 | 75% | 34% | 14% | opposed this effect | – | –
CN(C)c1ccc([C@H]2C[C@@]3(C)[C@@H](CC[C@@]3(O)C#Cc3ccccc3)[C@@H]3CCC4=CC(=O)CCC4=C32)cc1 [Example 29, 11β-[4-(N,N-dimethylamino)-phenyl]-21-phenyl-19-nor-17α-Δ^4,9-pregnadiene-20-yne-17β-ol-3-one] | – | – | – | – | – | – | – | 0 | 0 | – | 57% | 18% | opposed this effect | * (A dose of 10^-6 M inhibited totally the effect of dexamethasone) | –
CC#C[C@]1(O)CC[C@H]2[C@@H]3CCC4=CC(=O)CCC4=C3[C@@H](c3ccc([N+](C)(C)[O-])cc3)C[C@@]21C [Example 35, N-oxide of 11β-[4-(N,N-dimethylamino)-phenyl]-17α-(prop-1-ynyl)-Δ^4,9-estradiene-17β-ol-3-one] | – | – | – | – | – | – | – | 2,2 | 0 | 50% | 21% | 4% | opposed this effect | – | –
C=CC[C@]1(O)CC[C@H]2[C@@H]3CCC4=CC(=O)CCC4=C3[C@@H](c3ccc(N(C)C)cc3)C[C@@]21C [Example 37, 11β-[4-(N,N-dimethylamino)-phenyl]-17α-(prop-2-enyl)-Δ^4,9-estradien-17β-ol-3-one] | – | – | – | – | – | – | – | 8 | 0 | – | – | – | opposed this effect | * (A dose of 10^-6 M inhibited totally the effect of dexamethasone) | slightly moderate affinity
